Test results from patent US20260022098A1, “BULLEYACONITINE A DERIVATIVE WITH ANALGESIC ACTIVITY, AND PREPARATION METHOD AND APPLICATION THEREOF” (priority 2023, published 2026).
Like-named read-outs stand apart in the source and are kept apart here.

What was measured:
[1] = tested on: Kunming mice; experiment: Analgesic activity by acetic acid-induced writhing method (writhing inhibition rate, ED50); type: in vivo; conditions: Mus musculus, sc, read-out: Analgesia rate (%) ± SEM
Method: (§1) The experimental animals were Kunming mice (male:female=1:1), weighed 22+2 g, which were provided by Chengdu dossy experimental animals Co., ltd., China. The mice were kept in the animal room of the School of Life Science and Engineering, Southwest Jiaotong University, where the animal room was set at a temperature of 23±2° C., a humidity of […] and a photoperiod of 16:8 h (L:D). Before the experiment, the mice were freely fed for 2-3 days with water and feed to adapt to the new environment. Then, the mice were treated by water and food fasting for 12 h. 10 animals were allocated to each group to ensure that there are at least 6 sets of valid data in each group. The animal experiments were carried out in strict accordance with the national regulations on the management of experimental animals.
(§2) The compounds prepared in the examples provided herein (test sample set) and bulleyaconitine A (positive control set) were all dissolved with 0.1 mol/L HCl according to a molar ratio of 1:1, and then diluted with physiological saline to a concentration to be determined. Blank control was physiological saline containing 0.1 mol/L HCl. The animals in the control groups were subjected to the same treatment as those in experimental groups except that samples to be test were replaced with physiological saline.
(1) Determination of Analgesic Activity Through an Acetic Acid-Induced Writhing Method
10 mice were randomly selected, male:female=1:1, were placed in independent cages. Each mouse was injected subcutaneously with the sample solution mentioned above at a dose of 0.1 mL/10 g body weight. After 15 min, a 0.7% acetic acid solution was intraperitoneally injected. A number of writhing reactions in each mouse within 15 minutes was recorded. The group that the mice were injected with physiological saline subcutaneously was the blank group; the group that the mice were injected with the sample to be tested was the experimental group; and the group that the mice were injected with bulleyaconitine A was the positive group. The analgesic activity was represented by a percentage of the reduced number of writhing compared to the blank group (writhing inhibition rate), which were specifically as follows: writhing inhibition rate (analgesic activity)=(average number of writhing times in the blank group-average number of writhing times in the experimental group)/average number of writhing times in the blank group×100%.
Median Effective Dose (ED50) Determination
The sample to be tested was dissolved with 0.1 mol/L HCl according to the amount of the substance ratio of 1:1, and diluted with physiological saline according to the proportional series to obtain at least 5 groups with different dose concentrations. The writhing inhibition rate of each dose group was tested according to the acetic acid-induced writhing method mentioned above. The obtained dose-writhing inhibition data was entered into the statistical product and service solutions (SPSS) software (version 17.2), and the ED50 of the sample to be tested was calculated through the Probit regression method.

[2] = tested on: Kunming mice; experiment: Acute toxicity / median lethal dose (LD50) determination, subcutaneous injection; type: in vivo; parameters: key to Acute toxicity: if death occurred, (+) represented as positive; if no death occurred, (−) represented as negative; conditions: mice administered 20 mg/kg subcutaneously, presence of death within 24 h
Method: as §1, §2
(2) Median Lethal Dose (LD50) Determination
The sample to be tested was dissolved with 0.1 mol/L HCl according to the amount of the substance ratio of 1:1, and diluted with physiological saline according to the required concentration. 10 mice in each group were randomly selected, half of which were male and half of which were female, and were placed in independent cages. Each mouse was injected subcutaneously with different sample solutions to be tested according to a dose of 0.1 mL/10 g body weight. In the preliminary toxicity experiment, the measured concentration was 20 mg/kg, and then based on the survival rate of the experimental animals in the preliminary experiment, the sample to be tested was set to at least 5 groups with different concentration dose according to the proportional series. The survival rate of mice within 24 h was recorded. The obtained dose-survival rate data was input into the SPSS software (version 17.2), and the LD50 of the sample was calculated according to the Probit regression method.

SMILES | inhibition in vivo at 0.05 mg/kg [1] [%] | Acute toxicity [2] | inhibition in vivo at 0.05 mg/kg ([1]; dosing concentration 0.05 mg/kg, subcutaneous, acetic acid-induced writhing, mice) [%]
CCO[C@]12C[C@H](OC)[C@@]3(OC(C)=O)CC(C1[C@H]3OC(C)=O)[C@]13C4[C@@H](OC)C2[C@H]1N(CC)C[C@]4(COC)CC[C@@H]3OC (stereo partly drawn) [Compound 41] | 18.5 ± 2.1 | − | 
CCO[C@]12C[C@H](OC)[C@@]3(OC(=O)c4cccc(F)c4)CC(C1[C@H]3OC(=O)c1cccc(F)c1)[C@]13C4[C@@H](OC)C2[C@H]1N(CC)C[C@]4(COC)CC[C@@H]3OC (stereo partly drawn) [Compound 72] | 24.7 ± 2 | − | 
CCN1C[C@]2(COC)CC[C@H](OC)[C@@]34C5C[C@]6(OC(=O)C7CCCCC7)[C@@H](OC)C[C@@](OC(C)=O)(C5[C@H]6OC(=O)c5ccc(OC)cc5)C([C@H](OC)C23)[C@@H]14 (stereo partly drawn) [Compound 11] | 35.1 ± 1.2 | − | 
CCN1C[C@]2(COC)CC[C@H](OC)[C@@]34C5C[C@]6(OC(=O)C7CC7)[C@@H](OC)C[C@@](OC(C)=O)(C5[C@H]6OC(=O)c5ccc(OC)cc5)C([C@H](OC)C23)[C@@H]14 (stereo partly drawn) [Compound 10] | 15.2 ± 1.9 | − | 
C/C=C/C(=O)O[C@]12CC3C([C@H]1OC(=O)c1ccc(OC)cc1)[C@](OC(C)=O)(C[C@@H]2OC)C1[C@H](OC)C2[C@@]4(COC)CC[C@H](OC)[C@@]32[C@@H]1N(CC)C4 (stereo partly drawn) [Compound 87] | 17.3 ± 3.1 | − | 
CCO[C@]12C[C@H](OC)[C@@]3(OC(=O)C4CC4)CC(C1[C@H]3OC(=O)c1ccc(OC)cc1)[C@]13C4[C@@H](OC)C2[C@H]1N(CC)C[C@]4(COC)CC[C@@H]3OC (stereo partly drawn) [Compound 16] | 36.7 ± 1.2 | − | 
CCN1C[C@]2(COC)CC[C@H](OC)[C@@]34C5C[C@]6(OC(=O)C(C)C)[C@@H](OC)C[C@@](OC(C)=O)(C5[C@H]6OC(=O)c5ccc(OC)cc5)C([C@H](OC)C23)[C@@H]14 (stereo partly drawn) [Compound 82] | 33.3 ± 1.5 | − | 
CCO[C@]12C[C@H](OC)[C@@]3(OC(=O)c4ccc(C(F)(F)F)cc4)CC(C1[C@H]3OC(=O)c1ccc(OC)cc1)[C@]13C4[C@@H](OC)C2[C@H]1N(CC)C[C@]4(COC)CC[C@@H]3OC (stereo partly drawn) [Compound 47] | 33.8 ± 2.2 | − | 
CCN1C[C@]2(COC)CC[C@H](OC)[C@@]34C5C[C@]6(OC(=O)C7CCOCC7)[C@@H](OC)C[C@@](OC(C)=O)(C5[C@H]6OC(=O)c5ccc(OC)cc5)C([C@H](OC)C23)[C@@H]14 (stereo partly drawn) [Compound 25] | 23 ± 0.8 | − | 
CCO[C@]12C[C@H](OC)[C@@]3(OC(=O)CC(C)(C)C)CC(C1[C@H]3OC(=O)c1ccc(OC)cc1)[C@@]13C4[C@@H]2[C@H](OC)C1[C@@](COC)(CC[C@@H]3OC)CN4CC (stereo partly drawn) [Compound 89] |  | − | 33.7 ± 2.4
CCO[C@]12C[C@H](OC)[C@@]3(OC(=O)c4ccccc4Cl)CC(C1[C@H]3OC(=O)c1ccccc1Cl)[C@]13C4[C@@H](OC)C2[C@H]1N(CC)C[C@]4(COC)CC[C@@H]3OC (stereo partly drawn) [Compound 68] | 24.6 ± 1.7 | − | 
CCO[C@]12C[C@H](OC)[C@@]3(OC(=O)Cc4cccs4)CC(C1[C@H]3OC(=O)Cc1cccs1)[C@]13C4[C@@H](OC)C2[C@H]1N(CC)C[C@]4(COC)CC[C@@H]3OC (stereo partly drawn) [Compound 93] | 10.5 ± 2.3 | − | 
CCO[C@]12C[C@H](OC)[C@@]3(O)CC(C1[C@H]3OC(=O)c1ccc(OC)cc1)[C@]13C4[C@@H](OC)C2[C@H]1N(CC)C[C@]4(COC)CC[C@@H]3OC (stereo partly drawn) [Compound 2] | 41.1 ± 1.8 | + | 
C/C=C/C(=O)O[C@]12CC3C([C@H]1OC(=O)c1ccc(OC)cc1)[C@](OCC)(C[C@@H]2OC)C1[C@H](OC)C2[C@@]4(COC)CC[C@H](OC)[C@@]32[C@@H]1N(CC)C4 (stereo partly drawn) [Compound 86] | 22.8 ± 1.8 | − | 
CCO[C@]12C[C@H](OC)[C@@]3(OC(=O)c4cccc(Cl)c4)CC(C1[C@H]3OC(=O)c1cccc(Cl)c1)[C@]13C4[C@@H](OC)C2[C@H]1N(CC)C[C@]4(COC)CC[C@@H]3OC (stereo partly drawn) [Compound 71] | 4.11 ± 2 | − | 
